According to patent US7109242B2, “Carboxylic compound and medicine comprising the same” (Kowa Company, Ltd., priority 2003, dated 2006):
Where a name gives a salt, the structure may show the parent alone.

Legend:
C57BL/KsJ db/db mouse = assay: Actions of lowering plasma glucose, insulin and triglyceride in vivo in db/db mice; conditions: for Reduction rate of plasma glucose / Reduction rate of plasma insulin / Reduction rate of plasma triglyceride: blood two hours after administration on 14th day; for Plasma glucose reducing action (ED25): oral once a day for 14 days, dose required for reduction of plasma glucose concentration by 25%, vehicle group as 100%
Text: The compounds of the present invention and the aforementioned Compound A and pioglitazone hydrochloride each as a reference compound were subjected to the measurements of the actions of lowering plasma glucose, insulin, and triglyceride in vivo according to the following method (Metabolism, 48, pp34–40, 1999, Journal of Medicinal Chemistry, 44, pp2601–2611, 2001).
C57BL/KsJ db/db mouse (Journal of Clinical Investigation, 85, pp 962–967, 1990) was used as an experimental animal, which was developed in The Jackson Laboratory (USA) and is known as a model animal with obesity, hyperlipemia, hyperinsulinemia, and insulin resistance.
Bloods were collected from seven weeks old db/db mice from their orbital sinus by using heparin-treated capillary tubes. After centrifugation of the bloods, plasma was collected and then subjected to measurements of concentrations of plasma glucose, insulin, and triglyceride to divide the animals. From the next day of the day of blood collection, the administrations of the compounds were started. The compounds were orally administered once a day for 14 days. On the 14th day, blood was collected from orbital sinus two hours after the administration of the compounds. Plasma was collected, and subjected to measurements of concentrations of plasma glucose, insulin, and triglyceride.
The dose required for reduction of plasma glucose concentration by 25% (ED25) was obtained using the value of the vehicle administered group as 100% (Arznimittel-Forschung, 40, pp156–162, 1990).

PPAR γ = biological target: T1, PPAR γ (Homo sapiens, UniProt P37231); conditions: mode of action of thiazolidinedione type compounds; cited from earlier work
T1 sequence (P37231 1-505): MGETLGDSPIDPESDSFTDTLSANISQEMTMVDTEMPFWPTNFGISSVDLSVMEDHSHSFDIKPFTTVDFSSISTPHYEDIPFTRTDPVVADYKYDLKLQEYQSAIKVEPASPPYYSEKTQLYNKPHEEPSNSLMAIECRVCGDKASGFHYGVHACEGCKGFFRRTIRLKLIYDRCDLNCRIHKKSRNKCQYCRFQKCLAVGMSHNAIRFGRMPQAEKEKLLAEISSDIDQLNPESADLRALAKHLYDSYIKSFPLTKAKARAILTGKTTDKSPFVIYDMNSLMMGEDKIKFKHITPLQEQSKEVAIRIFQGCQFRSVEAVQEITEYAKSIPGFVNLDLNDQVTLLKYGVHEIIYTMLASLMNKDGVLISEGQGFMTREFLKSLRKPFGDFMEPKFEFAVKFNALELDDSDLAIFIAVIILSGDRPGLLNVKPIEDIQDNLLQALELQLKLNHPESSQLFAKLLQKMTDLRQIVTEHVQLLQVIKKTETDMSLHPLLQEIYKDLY

[1] = 0.5 mg/kg orally once a day for 14 days, 0.5 mg/kg
[2] = 1.5 mg/kg orally once a day for 14 days, 1.5 mg/kg
[3] = 5 mg/kg orally once a day for 14 days, 5 mg/kg
[4] = 1 mg/kg orally once a day for 14 days
[5] = 3 mg/kg orally once a day for 14 days
[6] = 10 mg/kg orally once a day for 14 days
[7] = 30 mg/kg orally once a day for 14 days

For `O=C(O)C(Cl)(Cl)CCCCCCCC(O)CCc1ccc(Cl)cc1` (single isomer, unassigned; (+)) [Example 5(4), (+)-2,2-dichloro-12-(4-chlorophenyl)-10-hydroxydodecanoic acid], the “Reduction rate of plasma glucose” value (C57BL/KsJ db/db mouse; [1]) was 20.7 ± 14.3, the “Reduction rate of plasma insulin” value (C57BL/KsJ db/db mouse; [1]) was −22.0 ± 84.1 and the “Reduction rate of plasma triglyceride” value (C57BL/KsJ db/db mouse; [1]) was 42.0 ± 17.3. For the same compound, the “Reduction rate of plasma glucose” value (C57BL/KsJ db/db mouse; [2]) was 40.6 ± 5.8, the “Reduction rate of plasma insulin” value (C57BL/KsJ db/db mouse; [2]) was 39.5 ± 37.5 and the “Reduction rate of plasma triglyceride” value (C57BL/KsJ db/db mouse; [2]) was 48.3 ± 6.9. For the same compound, the “Reduction rate of plasma glucose” value (C57BL/KsJ db/db mouse; [3]) was 42.4 ± 11.4, the “Reduction rate of plasma insulin” value (C57BL/KsJ db/db mouse; [3]) was 43.8 ± 26.3 and the “Reduction rate of plasma triglyceride” value (C57BL/KsJ db/db mouse; [3]) was 44.6 ± 9.7. The “Plasma glucose reducing action (ED25)” value (C57BL/KsJ db/db mouse) was 0.5 mg/kg and the “Plasma glucose reducing action (ED25)” value (C57BL/KsJ db/db mouse; listed as Example 5 (4)) was 0.5 mg/kg.

With `O=C(O)C(Cl)(Cl)CCCCCCCCCCc1ccc(Cl)cc1` [Compound A] the “Reduction rate of plasma glucose” value (C57BL/KsJ db/db mouse; [4]) was −5.0 ± 19.5, the “Reduction rate of plasma insulin” value (C57BL/KsJ db/db mouse; [4]) was 0.7 ± 77.6 and the “Reduction rate of plasma triglyceride” value (C57BL/KsJ db/db mouse; [4]) was 23.4 ± 15.3. The “Reduction rate of plasma glucose” value (C57BL/KsJ db/db mouse; [5]) was 25.4 ± 17.7, the “Reduction rate of plasma insulin” value (C57BL/KsJ db/db mouse; [5]) was 7.4 ± 18.7 and the “Reduction rate of plasma triglyceride” value (C57BL/KsJ db/db mouse; [5]) was 27.5 ± 17.5. For the same compound, the “Reduction rate of plasma glucose” value (C57BL/KsJ db/db mouse; [6]) was 65.3 ± 5.0, the “Reduction rate of plasma insulin” value (C57BL/KsJ db/db mouse; [6]) was 10.7 ± 61.6 and the “Reduction rate of plasma triglyceride” value (C57BL/KsJ db/db mouse; [6]) was 54.6 ± 4.1. The “Plasma glucose reducing action (ED25)” value (C57BL/KsJ db/db mouse) was 2.8 mg/kg and the “PPAR γ activating action” value (PPAR γ) was “no PPAR γ activating action”.

In the case of `CCc1ccc(CCOc2ccc(CC3SC(=O)NC3=O)cc2)nc1` (stereo not shown) [Pioglitazone hydrochloride, reference compound], the “Reduction rate of plasma glucose” value (C57BL/KsJ db/db mouse; [5]) is reported as 13.4 ± 18.3, the “Reduction rate of plasma insulin” value (C57BL/KsJ db/db mouse; [5]) is reported as −24.7 ± 119.3 and the “Reduction rate of plasma triglyceride” value (C57BL/KsJ db/db mouse; [5]) is reported as 9.4 ± 15.9. For the same compound, the “Reduction rate of plasma glucose” value (C57BL/KsJ db/db mouse; [6]) was 22.3 ± 22.8, the “Reduction rate of plasma insulin” value (C57BL/KsJ db/db mouse; [6]) was −18.7 ± 52.5 and the “Reduction rate of plasma triglyceride” value (C57BL/KsJ db/db mouse; [6]) was 25.4 ± 16.9. The “Reduction rate of plasma glucose” value (C57BL/KsJ db/db mouse; [7]) was 45.2 ± 21.2, the “Reduction rate of plasma insulin” value (C57BL/KsJ db/db mouse; [7]) was 13.9 ± 22.7 and the “Reduction rate of plasma triglyceride” value (C57BL/KsJ db/db mouse; [7]) was 38.2 ± 8.1. For the same compound, the “Plasma glucose reducing action (ED25)” value (C57BL/KsJ db/db mouse) was 8.3 mg/kg.

For `O=C(O)C(Cl)(Cl)CCCCCCCC(O)CCc1ccc(Cl)cc1` (single isomer, unassigned; (-)) [Example 5(5), (−)-2,2-dichloro-12-(4-chlorophenyl)-10-hydroxydodecanoic acid], the “Reduction rate of plasma glucose” value (C57BL/KsJ db/db mouse; [1]) was −10.3, the “Reduction rate of plasma insulin” value (C57BL/KsJ db/db mouse; [1]) was 20.8 ± 32.0 and the “Reduction rate of plasma triglyceride” value (C57BL/KsJ db/db mouse; [1]) was 23.0 ± 13.8. The “Reduction rate of plasma glucose” value (C57BL/KsJ db/db mouse; [2]) was 28.5 ± 10.7, the “Reduction rate of plasma insulin” value (C57BL/KsJ db/db mouse; [2]) was 20.4 ± 38.0 and the “Reduction rate of plasma triglyceride” value (C57BL/KsJ db/db mouse; [2]) was 40.5 ± 15.3. For the same compound, the “Reduction rate of plasma glucose” value (C57BL/KsJ db/db mouse; [3]) was 49.2 ± 9.6, the “Reduction rate of plasma insulin” value (C57BL/KsJ db/db mouse; [3]) was 68.9 ± 13.2 and the “Reduction rate of plasma triglyceride” value (C57BL/KsJ db/db mouse; [3]) was 37.6 ± 11.3. For the same compound, the “Plasma glucose reducing action (ED25)” value (C57BL/KsJ db/db mouse) was 1.7 mg/kg.

In the case of `O=C(O)C(Cl)(Cl)CCCCCCCCC(O)Cc1ccc(Cl)cc1` (stereo not shown) [Example 4(4), 2,2-dichloro-12-(4-chlorophenyl)-11-hydroxydodecanoic acid], the “Reduction rate of plasma glucose” value (C57BL/KsJ db/db mouse; [5]) is reported as 35.0 ± 21.2, the “Reduction rate of plasma insulin” value (C57BL/KsJ db/db mouse; [5]) is reported as −19.8 ± 71.8 and the “Reduction rate of plasma triglyceride” value (C57BL/KsJ db/db mouse; [5]) is reported as 45.5 ± 13.9. For the same compound, the “Reduction rate of plasma glucose” value (C57BL/KsJ db/db mouse; [6]) was 65.2 ± 8.0, the “Reduction rate of plasma insulin” value (C57BL/KsJ db/db mouse; [6]) was 20.3 ± 24.9 and the “Reduction rate of plasma triglyceride” value (C57BL/KsJ db/db mouse; [6]) was 58.8 ± 3.7. For the same compound, the “Reduction rate of plasma glucose” value (C57BL/KsJ db/db mouse; [7]) was 67.2 ± 6.8, the “Reduction rate of plasma insulin” value (C57BL/KsJ db/db mouse; [7]) was 51.1 ± 20.2 and the “Reduction rate of plasma triglyceride” value (C57BL/KsJ db/db mouse; [7]) was 54.1 ± 6.6. The “Plasma glucose reducing action (ED25)” value (C57BL/KsJ db/db mouse) was 1.1 mg/kg.

For `O=C(O)C(Cl)(Cl)CCCCCCCC(O)CCc1ccc(Cl)cc1` (stereo not shown) [Example 2(4), 2,2-dichloro-12-(4-chlorophenyl)-10-hydroxydodecanoic acid], the “Reduction rate of plasma glucose” value (C57BL/KsJ db/db mouse; [5]) was 44.4 ± 17.0, the “Reduction rate of plasma insulin” value (C57BL/KsJ db/db mouse; [5]) was −12.5 ± 58.1 and the “Reduction rate of plasma triglyceride” value (C57BL/KsJ db/db mouse; [5]) was 53.2 ± 6.9. For the same compound, the “Reduction rate of plasma glucose” value (C57BL/KsJ db/db mouse; [6]) was 66.6 ± 4.1, the “Reduction rate of plasma insulin” value (C57BL/KsJ db/db mouse; [6]) was 39.1 ± 21.3 and the “Reduction rate of plasma triglyceride” value (C57BL/KsJ db/db mouse; [6]) was 54.1 ± 5.5. The “Reduction rate of plasma glucose” value (C57BL/KsJ db/db mouse; [7]) was 75.2 ± 3.1, the “Reduction rate of plasma insulin” value (C57BL/KsJ db/db mouse; [7]) was 64.3 ± 10.1 and the “Reduction rate of plasma triglyceride” value (C57BL/KsJ db/db mouse; [7]) was 55.7 ± 6.3. For the same compound, the “Plasma glucose reducing action (ED25)” value (C57BL/KsJ db/db mouse) was 0.6 mg/kg and the “Plasma glucose reducing action (ED25)” value (C57BL/KsJ db/db mouse; listed as Example 2 (4)) was 0.6 mg/kg.

In the case of `O=C(O)C(Cl)(Cl)CCCCCCCCCC(O)c1ccc(Cl)cc1` (stereo not shown) [Example 3(4), 2,2-dichloro-12-(4-chlorophenyl)-12-hydroxydodecanoic acid], the “Reduction rate of plasma glucose” value (C57BL/KsJ db/db mouse; [5]) is reported as 29.3 ± 28.7, the “Reduction rate of plasma insulin” value (C57BL/KsJ db/db mouse; [5]) is reported as −2.8 ± 46.6 and the “Reduction rate of plasma triglyceride” value (C57BL/KsJ db/db mouse; [5]) is reported as 23.2 ± 24.7. For the same compound, the “Reduction rate of plasma glucose” value (C57BL/KsJ db/db mouse; [6]) was 53.4 ± 14.7, the “Reduction rate of plasma insulin” value (C57BL/KsJ db/db mouse; [6]) was 39.0 ± 10.3 and the “Reduction rate of plasma triglyceride” value (C57BL/KsJ db/db mouse; [6]) was 40.6 ± 8.9. The “Reduction rate of plasma glucose” value (C57BL/KsJ db/db mouse; [7]) was 74.5 ± 3.0, the “Reduction rate of plasma insulin” value (C57BL/KsJ db/db mouse; [7]) was 61.7 ± 18.5 and the “Reduction rate of plasma triglyceride” value (C57BL/KsJ db/db mouse; [7]) was 25.8 ± 24.7. The “Plasma glucose reducing action (ED25)” value (C57BL/KsJ db/db mouse) was 2.4 mg/kg.
